Measurements reported in publication PMC8968952, “Modulation of ERCC1-XPF Heterodimerization Inhibition via Structural Modification of Small Molecule Inhibitor Side-Chains” (Frontiers in Oncology, 2022).

Assays:
[1] = target: T1, ERCC1-XPF heterodimer in A549 cells (Homo sapiens, UniProt Q92889); set-up: method as in PMID 33399940; details: cited from earlier work; for PLA: inhibition of the interaction between ERCC1 and XPF (in words): A549 cells treated with 20 μM cisplatin and 1 μM inhibitor
T1 construct: endogenous in cells; host or cells: A549
T1 sequence (Q92889 1-916): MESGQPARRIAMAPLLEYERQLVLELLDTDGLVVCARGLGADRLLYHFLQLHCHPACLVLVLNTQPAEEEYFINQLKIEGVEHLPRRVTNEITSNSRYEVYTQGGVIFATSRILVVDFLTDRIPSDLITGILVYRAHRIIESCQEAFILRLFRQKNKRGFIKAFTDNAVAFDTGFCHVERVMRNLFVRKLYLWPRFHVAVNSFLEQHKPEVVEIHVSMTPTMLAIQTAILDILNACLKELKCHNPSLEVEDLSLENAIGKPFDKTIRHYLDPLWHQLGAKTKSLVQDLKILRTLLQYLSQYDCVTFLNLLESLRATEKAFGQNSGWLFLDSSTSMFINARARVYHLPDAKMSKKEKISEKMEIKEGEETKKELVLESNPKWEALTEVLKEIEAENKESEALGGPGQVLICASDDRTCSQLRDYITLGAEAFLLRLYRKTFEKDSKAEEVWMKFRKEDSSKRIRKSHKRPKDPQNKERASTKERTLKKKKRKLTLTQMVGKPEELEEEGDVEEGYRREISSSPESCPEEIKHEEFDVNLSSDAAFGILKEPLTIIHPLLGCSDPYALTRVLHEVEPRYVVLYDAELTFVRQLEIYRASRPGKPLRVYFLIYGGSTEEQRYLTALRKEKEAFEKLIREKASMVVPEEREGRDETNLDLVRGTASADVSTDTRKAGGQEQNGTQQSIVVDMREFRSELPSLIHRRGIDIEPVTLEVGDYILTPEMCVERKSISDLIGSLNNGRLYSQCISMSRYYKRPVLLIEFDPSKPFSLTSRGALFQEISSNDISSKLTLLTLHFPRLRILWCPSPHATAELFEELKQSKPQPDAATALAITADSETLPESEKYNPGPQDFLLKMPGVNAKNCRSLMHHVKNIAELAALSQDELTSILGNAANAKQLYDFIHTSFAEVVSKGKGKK

ERCC1-XPF = target: T2, ERCC1-XPF (Homo sapiens, UniProt Q92889); assay: Microplate fluorescence incision assay (endonuclease activity); type: biochemical; details: 10 μM inhibitor, 10 min preincubation
T2 construct: the final purity of the full-length ERCC1-XPF heterodimer was determined to be ~35%; His6; made in house; host or cells: E. coli BL21(DE3)
T2 sequence (Q92889 1-916): T1 sequence (Q92889 1-916)
Excerpt: Recombinant human ERCC1–XPF wild-type protein (containing polyhistidine (His-6) tags) was expressed from a bicistronic plasmid (kindly provided by Dr. Richard Wood, University of Texas MD Anderson Cancer Center, Smithville, TX) in the E. coli BL21(DE3) strain, Following previously described procedures ([70], [78]) the proteins extracted from E. coli were eluted from a ProBond Nickel-Chelating Resin (Thermo Fisher Scientific) and then a Hi-trap heparin column (GE Healthcare). Fractions containing ERCC1–XPF were dialyzed, concentrated, and stored at −80°C in 10 mM HEPES, pH 7.4, 2.5 mM β-mercaptoethanol, 0.01% CHAPS, 0.25 mM EDTA, 50% glycerol, and 25 mM NaCl. Based on polyacrylamide gel separation and Coomassie Blue staining, the final purity of the full-length ERCC1-XPF heterodimer was determined to be ~35%.
We employed a previously described protocol ([60], [70], [78]) in which the incision of the stem–loop substrate [6-FAM-5′-[…](20T)[…]-3′-dabcyl] (100 nM in 50 mM Tris-HCl, pH 8, 20 mM NaCl, 0.5 mM DDT, and 0.75 mM MnCl2) mediated by ERCC1-XPF (25 ng) in a total volume of 20 μL at 25°C was monitored by fluorescence using a FLUOstar Optima fluorimeter (BMG Labtech) with Optima software and excitation and emission wavelengths of 485 and 520 nm, respectively, for 5.5 min. The final concentration of inhibitor in the reaction was 10 μM prepared from a 200 μM stock solution in DMSO. With a molecular weight of 151 KDa for the XPF-ERCC1 heterodimer, a concentration of 25 ng of protein in 20 µl reaction buffer and a purity of 35%, the molar concentration of the enzyme was estimated to be 2.9 nM. Data were plotted using Microsoft Excel 2016.
An in vitro fluorescence-based assay was used to assess the ability of the synthesized compounds to inhibit the endonuclease activity of ERCC1-XPF. This assay has been previously described ([60], [70], [78]) and makes use of a stem-loop DNA substrate with a 5’-FAM fluorescent dye, and a 3’-dabcyl quencher. When ERCC1-XPF can cleave the DNA substrate, a 5’-FAM containing molecule is liberated from the stem-loop (and the quencher) and the fluorescence of the solution increases. The increase of the fluorescence of the solution can be observed in Figure 3A , in the absence of any inhibitor. To determine the influence of the inhibitory compounds, the protein was preincubated for 10 minutes with 10 μM of each inhibitor prior to addition of the substrate.

HCT-116 cells [2] = assay: Clonogenic survival assay, cyclophosphamide treatment; type: cell-based, human
Protocol: […] The medium was then replaced with drug and inhibitor-free fresh medium. After incubation for another 9 days to allow for colony formation, the plates were stained with crystal violet, colonies were counted, and plating efficiency and surviving fraction were calculated. Data were plotted using GraphPad Prism version 5.04. software.

HCT-116 cells [3] = assay: Cellular repair of cyclobutane pyrimidine dimers (cellular NER) after UVC; type: cell-based, human; details: 2 μM
Protocol: We followed the protocol of Mirzayans et al. ([79]) with minor modifications as previously described ([70]). Inhibitor compounds were dissolved in DMSO and applied to a final DMSO concentration of 0.2% in media and 0.2% DMSO was used as the vehicle control. Mouse anti-thymine dimer monoclonal antibody (cat. no. MC-062, Kamiya Biomedical Company, Seattle, WA) was used for the immunofluorescence following UVC irradiation of the cells and fluorescent microscopic evaluation and measurement of fluorescence intensity were performed using MetaXpress, version 6.2.1.704, software (Molecular Devices, Sunnyvale, California). Data were plotted using GraphPad Prism version 5.04 software.
Immunofluorescent detection of cyclobutane pyrimidine dimers (CPD) generated in the DNA of HCT-116 cells after exposure to UVC radiation was used to measure NER. Our observations that approximately 80% of CPD were removed 24 hours post irradiation in the absence of any inhibitors mirrors previous observations ([70], [79]).

HCT-116 cells [4] = assay: Clonogenic survival assay, UV treatment; type: cell-based, human; details: 0.5 μM
Protocol: HCT-116 cells (100–800 cells depending on the UV dose) were plated in triplicate in 60-mm Petri dishes in DMEM/F12 medium. Following overnight attachment of the cells in a humidified atmosphere containing 5% CO2 at 37°C, the cells were treated with 0.5 μM compound 6 or 10 in DMSO (as described in section 2.7) for 4 h before the medium was removed, and the cells exposed to increasing doses (0–10 J/m^2) of UV-C radiation. The cells were then cultured for a further 24 h in the presence of inhibitor and then for an additional 9 days in the absence of inhibitor to allow for colony formation. Colonies were stained with crystal violet and counted using a Colcount instrument (Oxford Optronix, Abingdon UK) to facilitate determination of plating efficiency and surviving fraction. Data were plotted using GraphPad Prism version 5.04 software.

In the case of COc1ccc2nc3cc(Cl)ccc3c(Nc3ccc(O)c(CN4CCN(C)CC4)c3)c2c1 [Compound 1], the “PLA: inhibition of the interaction between ERCC1 and XPF (in words)” value [1] is given as “clear inhibition of the interaction between ERCC1 and XPF”.
For CN(C)CCN1CCN(Cc2cc(Nc3c4ccc(Cl)cc4nc4ccc(O)cc34)ccc2O)CC1 [Compound 5], the “PLA: inhibition of the interaction between ERCC1 and XPF (in words)” value [1] is listed as “clear inhibition of the interaction between ERCC1 and XPF” and the “PLA: disruption of ERCC1-XPF heterodimerization (in words)” value ([1]; A549 not treated with cisplatin, 1 μM inhibitor) is listed as “significant disruption of ERCC1-XPF heterodimerization”.
For COc1ccc2nc3cc(Cl)ccc3c(Nc3ccc(O)c(CN4CCN(CCCN(C)C5Cc6ccccc6C5)CC4)c3)c2c1 [Compound 8], the “inhibition of ERCC1-XPF endonuclease activity (in words, vs control and 4)” value (“inhibition … (in words, vs control and 4)” below) (ERCC1-XPF) was “some inhibition of ERCC1-XPF endonuclease activity”.
With COc1ccc2nc3cc(Cl)ccc3c(Nc3ccc(O)c(CN4CCN(CCNCc5ccccc5)CC4)c3)c2c1 [Compound 10] the “sensitization to cyclophosphamide (in words)” value (HCT-116 cells [2]; 0.5 μM 6, 10 at 1.0 μM or 0.5 μM) was “no significant sensitization of HCT-116 cells to cyclophosphamide”, the “inhibition … (in words, vs control and 4)” value (ERCC1-XPF) was “some inhibition of ERCC1-XPF endonuclease activity” and the “effect on CPD removal / cellular NER (in words)” value (HCT-116 cells [3]) was “no significant effect on CPD removal”. The “sensitization to UVC radiation (in words)” value (HCT-116 cells [4]) was “no sensitization of HCT-116 to UVC radiation”.
For COc1ccc2nc3cc(Cl)ccc3c(Nc3ccc(O)c(CN4CCN(CCNCc5cccs5)CC4)c3)c2c1 [Compound 11], the “inhibition … (in words, vs control and 4)” value (ERCC1-XPF) was “some inhibition of ERCC1-XPF endonuclease activity”.
For CNC(=O)C(C)(C)CN1CCN(Cc2cc(Nc3c4ccc(Cl)cc4nc4ccc(OC)cc34)ccc2O)CC1 [Compound 12], the “inhibition … (in words, vs control and 4)” value (ERCC1-XPF) was “some inhibition of ERCC1-XPF endonuclease activity”.
For COCCN1CCN(Cc2cc(Nc3c4ccc(Cl)cc4nc4ccc(OC)cc34)ccc2O)CC1 [Compound 15], the “inhibition … (in words, vs control and 4)” value (ERCC1-XPF) was “some inhibition of ERCC1-XPF endonuclease activity”.
For O=P1(N(CCCl)CCCl)NCCCO1 (stereo not drawn) [cyclophosphamide, reference compound], the “cell survival, cyclophosphamide alone” value (HCT-116 cells [2]; 50 μM cyclophosphamide, no inhibitor) was 91.5%.
